Assay results as given in patent US9605027B2, “Polypeptides that bound to IL-23 receptor and inhibit binding of IL-23 and cell signaling thereof” (Medical Diagnostic Laboratories, LLC, priority 2011, dated 2017).
Peptide text beside a SMILES is read from it.

Columns and labels:
[1] = system: IL-23 induced IL-17F in rat splenocytes; experiment: IL-17F mRNA expression induced by IL-23 in rat splenocytes; assay type: cell-based; settings: IL-23 200 ng/ml, qRT-PCR; read-out: IC50, inhibition of IL-17F mRNA expression
Method: Sprague Dawley (SD) rat spleen was isolated and placed in 3 ml of media (RPMI 1640 with 10% FBS) in a small petri dish (35×10 mm). The rat spleen was placed on a sterile wire mesh screen using sterile forceps. The rat spleen was pushed through the screen with the plunger of a 10 ml syringe into the petri dish. Then, the suspension was mixed by gently pipetting up and down. The cells were spun down at 1,000 rpm for 10 minutes. Red blood cells were lysed by adding a Red Blood Cell lysis buffer. The cell suspension was incubated at room temperature for 5 minutes. The cells were spun down at 1,000 rpm for 10 minutes. The pelleted splenocytes were washed twice with PBS. After washing, the isolated splenocytes were re-suspended in 10 ml of culture media (RPMI 1640 with 10% FBS).
Rat splenocytes (2.5×10^6 cells/ml) were prepared and cultured in RPMI-1640 with 10% FBS for 16 hours at 37° C. Cyclic peptide no. […] The stimulation was carried out for an additional 4 hours. mRNA expression of IL-17F was measured by qRT-PCR (rat IL-17F forward primer (GGC-TCC-TGT-GAA-ACA-ACC-AT)(SEQ ID NO: 180) and rat IL-17F reverse primer (ACA-GAA-ATG-CCC-TGG-TTT-TG) (SEQ ID NO: 181). The PCR was performed under the following conditions: 95° C. for 5 minutes, 95° C. for 30 seconds, 60° C. for 30 seconds 72° C. for 30 seconds, times 40 cycles. […]

[2] = molecular target: IL-23 induced IL-22 production in human PBMCs (Homo sapiens, UniProt Q5VWK5); experiment: IL-22 production induced by IL-23 in human PBMC; assay type: cell-based; settings: IL-23 2 ng/ml, ELISA; read-out: IC50, inhibition of IL-22 production
IL-23 induced IL-22 production in human PBMCs, sequence (Q5VWK5 24-629 limits assumed): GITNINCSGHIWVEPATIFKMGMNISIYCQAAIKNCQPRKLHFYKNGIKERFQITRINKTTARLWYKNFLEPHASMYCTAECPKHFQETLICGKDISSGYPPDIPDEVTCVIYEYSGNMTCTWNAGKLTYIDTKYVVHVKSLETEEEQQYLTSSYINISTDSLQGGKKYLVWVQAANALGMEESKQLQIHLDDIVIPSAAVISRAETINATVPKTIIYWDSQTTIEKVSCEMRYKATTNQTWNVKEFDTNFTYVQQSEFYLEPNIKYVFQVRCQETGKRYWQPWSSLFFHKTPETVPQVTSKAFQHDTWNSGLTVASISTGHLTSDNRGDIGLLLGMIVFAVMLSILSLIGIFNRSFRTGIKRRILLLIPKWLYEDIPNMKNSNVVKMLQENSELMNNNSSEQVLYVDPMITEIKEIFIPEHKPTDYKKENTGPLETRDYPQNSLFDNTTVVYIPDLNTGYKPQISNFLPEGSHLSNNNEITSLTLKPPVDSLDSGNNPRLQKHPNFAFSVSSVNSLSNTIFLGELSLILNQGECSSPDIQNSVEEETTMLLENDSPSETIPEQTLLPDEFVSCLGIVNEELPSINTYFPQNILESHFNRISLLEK
Method: Peripheral blood mononuclear cells (PBMCs) were isolated from heparinized venous whole blood from healthy donors by density gradient centrifugation using Ficoll-Paque (Sigma-Aldrich, St Louis, Mo., USA). Human venous blood was purchased as anonymous buffy coats from the New Jersey Blood Transfusion Service. After isolation, the PBMCs were cultured in RPMI-1640 medium (Invitrogen-Gibco, Carlsbad, Calif.) supplemented with 10% heat-inactivated fetal bovine serum (Invitrogen-Gibco) and 1 mM of glutamine (Invitrogen-Gibco) at 37° C.
Isolated PBMCs (5×10^6 cells/ml) were cultured in the presence of […] and IL-18 (20 ng/ml). A serial dilution of IL-23 (from 0-2 ng/ml) was added to the cell culture for 30 hours. We measured the production of IL-22 by ELISA (Catalog #88-7522, eBioscience, San Diego, Calif.) according to manufacturer's protocol).
In order to measure the IC50 value of cyclic peptide no. 2HT AA (SEQ ID NO: 177), the cells were treated with a fixed amount of IL-23 cytokine (2 ng/ml) in the presence of a serial dilution of cyclic peptide no. 2HT AA (SEQ ID NO: 177). The cyclic peptide (SEQ ID NO: 177) inhibits IL-23 cytokine in PBMCs in a dose-dependent manner. […] Thus, the cyclic peptide no.

## CSCC[C@@H]1NC(=O)[C@H](CCCCN)NC(=O)[C@H](C)NC(=O)[C@H](C)NC(=O)[C@H](CS)NC(=O)[C@H](CC(N)=O)NC(=O)[C@H](CCCCN)NC(=O)[C@H](CC(C)C)NC(=O)[C@H](Cc2c[nH]c3ccccc23)NC(=O)[C@H](Cc2ccc(O)cc2)NC(=O)[C@H](CC(=O)O)NC(=O)[C@H](C(C)C)NC(=O)[C@H](Cc2c[nH]c3ccccc23)NC(=O)[C@H]([C@@H](C)O)NC1=O [2HT AA] (cyclo(AAKMTWVDYWLKNC))
[1]
  IC50: 270 nM
[2]
  IC50: 337 nM
